Measurements published in patent US8916686B2, “TDF-related compounds and analogs thereof” (Thrasos Innovation, Inc., priority 2004, dated 2014).

B1: BMP-7: bone morphogenetic protein-7 (OP-1, TDF-1); mature form of recombinant human BMP-7 used as positive control (protein)
chain: STGSKQRSQNRSKTPKNQEALRMANVAENSSSDQRQACKKHELYVSFRDLGWQDWIIAPEGYAAYYCEGECAFPLNSYMNATNHAIVQTLVHFINPETVPKPCCAPTQLNAISVLYFDDSSNVILKKYRNMVVRACGCH

What was measured:
[1] = system: synovial membrane-derived mesenchymal stem cells; assay: Chondrogenic differentiation, extracellular matrix deposition by alcian blue staining; format: cell-based
Description: Influence of compounds SEQ ID NO 16, 33, 45, 217, 221 on chondrogenic differentiation of synovial membrane-derived mesenchymal stem cells leading to increased extracellular matrix deposition as determined by alcian blue staining. SEQ ID NO:16, 33, 45, 217, and 221 correspond to Compounds E, A, C, B, and D, respectively.
TDFRP compounds can be used to in the prophylaxis or treatment of diseases of the oral cavity, e.g., by affecting direct capping of bioactive molecules, or inducing the formation of reparative dentin and coronal or radicular pulp mineralization (Goldberg et al., Am J. Dent. 2003 February; 16(1):66-76). Further, TDFRP can be used in the prophylaxis or treatment of periodontal disease. […] TDFRP compounds can be used in the prophylaxis or treatment of traumatic brain injury, e.g., stroke, see, e.g., Cairns and Finkelstein, Phys Med Rehabil Clin N Am. 2003 February; 14(1 Suppl):S135-42). Intravenous administration of BMP-7 after ischemia improves motor function in stroke rats (Chang et al., Stroke. 2003 February; 34(2):558-64) and the TDFRP compounds may protect against or repair reperfusion injury. […] Thrasos compounds that bind to ALK3, a type I receptor for BMP, are therefore analyzed to examine if they induce chondrogenic differentiation leading to extra cellular matrix deposition in synovial membrane-derived mesenchymal stem cells. […]

[2] = system: rat osteosarcoma (17/2.8) cells; assay: Rat osteosarcoma (ROS) cell-based alkaline phosphatase assay; conditions: 0.02-200 uM, 2 days; relative to BMP-7 standard
Protocol: BMP interactions with Type I and Type II receptors can induce alkaline phosphatase activity, a marker for osteoblast activity, in ROS cells. An assay procedure as described earlier (Maliakal, J.C., Asahina, I., Hauschka, P. V., and Sampath, T. K. (1994) Growth factors 11, 227-234) was used to determine the biological activities of TDFRP compounds. In a typical experiment, rat osteosarcoma (17/2.8) cells are plated in 96 well plates (3.0×10^4 cells/well) and incubated overnight at 37 C in 5-6% CO2 incubator. The next day, healthy and confluent cells are treated with increasing concentrations of BMP-7 standard (1-10,000 ng/ml) served as positive control or TDFRP compounds (0.02-200 uM) prepared in medium containing 1% FBS and incubated for 2 days at 37 C in 5-6% CO2 incubator. The cellular content of alkaline phosphatase activity is determined by the method of Reddi and Huggins (Reddi, A. H., and Huggins, C. B (1972) Proc. Natl. Acad. Sci. USA 69, 1601-1605). Enzyme estimations are performed in 96 well plates. Following removal of culture medium, cells are washed with pre-warmed PBS (150 ul) and incubated in 100 ul of pre-warmed 1% Triton X-100 for 30 minutes at 37 C. Plates are centrifuged for 10 minutes at full speed, and recovered samples (15 ul) are assayed for enzyme activity by adding 90 ul p-nitrophenyl phosphate (Sigma) as a substrate in 0.05 M glycine-NaOH buffer, pH 9.3 and incubating for 20 minutes at 37 C. The reaction is stopped by adding 75 ul of 0.2 N NaOH/well and absorbance at 405/490 nm is measured on a Dynatech MR 700 plate reader. Results are expressed as relative activities compared to a BMP-7 standard.

[3] = system: rat after ligation of the coronary artery; assay: LAD occlusion model of myocardial injury (ischemia/reperfusion); format: in vivo; conditions: day 7; compound 10 mg/kg i.v., rhmBMP-7 160 μg/kg i.v.
Protocol: The efficacy of compound SEQ ID #45 in ameliorating the effects of myocardial ischemia was investigated in the rat after ligation of the coronary artery. […] unmanipulated rats, sorted into two large groups by initial body weight (>300 g pre-surgery) were evaluated. Fourteen rats underwent surgery on week, 12 rats underwent surgery on week 2 and rats were sorted into 3 treatment groups: Group 1, PBS; Group 2, positive control TDF-1; Group 3, test article SEQ ID #45 (see Table X).
Three days prior to surgery, a serum sample was collected from the tail vein of each rat (pre-bleed). On the day of surgery, each rat was administered compound intravenously 2 hr prior to surgery. Surgery was performed sequentially after intubation and ventilation with 0.5% isofluorane anesthetic. Lead II ECG was monitored throughout the surgery. A thoracotomy was performed and the main left coronary artery was occluded for 20 min using a snare technique (FIG. 16). Successful occlusion of the artery was confirmed by ST elevation in lead II ECG within the first 5 minutes of ligation, and by frequent ventricular arrhythmia after 10 minutes of ligation. The snare was released to restore blood flow. The original suture loop was left in place for subsequent re-occlusion on Day 7. After initiation of reperfusion, the chest cavity was closed with 2 layers of suture. Rats were weaned from the ventilator and observed until fully conscious and mobile. Antibiotic (QD) and analgesic (Q8D) were provided. Additional serum samples were collected 6, 24, 72 and 120 hours post occlusion. Additional compound, positive control or vehicle treatments were delivered by intravenous injection in the tail vein at 24, 72 and 120 hours post occlusion.
On Day 7, each rat was anesthetized (ketamine:xyline), the chest cavity re-opened and a terminal blood sample (1 ml) was withdrawn from the abdominal vein. Gross pathology (i.e. inflammation) was noted and graded on a 4 point inflammation scale: 0=no inflammation, 1=slight, 2=moderate, 3=severe and 4=complete pericarditis. The left coronary artery was then re-occluded using the existing stitch and a concentrated solution of Evans Blue dye in saline (20 mg/ml; 0.5 ml/rat) was injected into the heart apex to stain the non-ischemic cardiac tissue blue. The heart was then arrested by injection of a saturated solution of potassium chloride into the right ventricle. The heart was then excised, wrapped in cellophane and stored at −20° C. for 1.5 hour. The cold heart was cut into 10 cross-sectional slices (2 mm/slice) and each section was numbered and incubated separately in triphenyltetrazolium chloride (1% TTC in PBS) for 10 minutes at 37° C. prior to fixing in 4% formaldehyde. Subsequently, each slice was photographed. For each slice, the “area at risk (AR)” and the “area occupied by necrosis (AN)” were measured by morphometry. The ratio of AN to AR is a measure of the degree of damage resulting from the occlusion (FIG. 17A-FIG. 17B).

[4] = system: TGF-beta1 induced EMT in epithelial cells; conditions: 100 ng/ml for 48 hours; cited from earlier work
[5] = system: mouse model of nephrotoxic serum nephritis; conditions: cited from earlier work

Molecule	deposition of the extracellular matrix [1]	induction of alkaline phosphatase activity [2]	further results
CYFNDSSQVLCKRYRS [SEQ ID NO 221]	significantly increased the deposition of the extracellular matrix	did not induce alkaline phosphatase activity	–
CYFDDSSQVLCKKYRS [SEQ ID NO 65]	–	did not induce alkaline phosphatase activity	–
CIVNSSDDFLCKKYRS [SEQ ID NO 16]	significantly increased the deposition of the extracellular matrix	–	–
CYFDDSSKVICKKYRS [SEQ ID NO 130]	–	did not induce alkaline phosphatase activity	–
B1	–	–	reduction in AN/AR ratio as compared to PBS-treated animals [3]: 7%; reversal of TGF-beta1 induced EMT [4]: reverses TGF-beta1 induced EMT; progression to chronic renal disease ([5]; about 300 micrograms/kg, starting after one week of NTN): sufficient to prevent progression to chronic renal disease; renal pathology ([5]; treatment from week 3 through week 6 and from week 4 through week 6): almost completely reversed renal pathology
